Reference: patent US20250333377A1, “SOLID FORM OF NAPHTHYLAMINE MITOPHAGY INDUCER, AND PREPARATION METHOD THEREFOR, PHARMACEUTICAL COMPOSITION THEREOF AND USE THEREOF” (HANGZHOU PHECDAMED CO., LTD., priority 2023, published 2025)
≈ marks a conversion by molar mass, not a printed value. Like-named read-outs stand apart in the source and are kept apart here.

Tests used:
[1] = Hygroscopicity (vapor sorption analyser, DVS); format: physicochemical
Method: Single crystalline sample of compound TJ01-013 is tested using a Waters vaporsorption analyser. Taking a dry weighing tray, and laying a single sample of crystal form flat in the weighing tray, and the volume of the loaded samples is about ⅓ to ⅔ of that of the weighing tray. Instrument parameters are set as follows: temperature: 25° C.; equilibrium: dm/dt=0.01%/min (minimum time: 10 minutes, and maximum time: 180 minutes); drying: drying 120 minutes under 0% RH; RH (%) testing gradient: 10%; RH (%) test gradient range: 0%-90%-0%.

[2] = Solubility in FaSSIF, FeSSIF, water and SGF; format: physicochemical; conditions: for solubility at 0.5 h / solubility at 2 h / solubility at 24 h: thermodynamic from solid; for Solubility: SGF
Method: Aliquots of the samples are placed in the media FaSSIF buffer, FeSSIF buffer, water and SGF and tested for solubility at 0.5, 2 and 24 hours, respectively.

HEK293T cells = assay: Selective induction of autophagy in damaged mitochondria, Keima HEK293 cell model; format: cell-based; conditions: 0 μM, 2.5 μM, 5 μM, 10 μM; mitochondria damaged with CCCP; FIG. 42; P=0.0425
Method: In HEK293T cells in vitro, fusing Keima fluorescent protein derived from the coral and the mitochondrial localization sequence of cytochrome C oxidase subunit IV asmtKeima protein, staining the nuclei with Hoechst33342 nuclear dye, and using the ThermoCellInsight™ CX7 LZR High Content Screening (HCS) platform at EX/EM=594 nm/620 nm conditions to assess mitophagy levels. The autophagy level of damaged mitochondria is tested by disrupting the mitochondrial membrane potential using […] Carbonyl cyanide 3-chlorophenylhydrazone (CCCP), causing mitochondrial damage.

Rat pharmacokinetic test = format: in vivo, SD rats; conditions: for AUC(0-t): read-out: AUC0-24 h; for MRT inf: read-out: MRT0-∞; for MRT last: read-out: MRT0-24 h
Method: The plasma kinetic characteristics of the prototype drugs in healthy SD rats are analyzed after three doses of single gavage administration, a single dose of consecutive multiple gavage administration, and a single dose of intravenous injection administration of the sodium salt D crystal form of TJ01-013. These include the rate of absorption and degree of exposure, individual differences, dose relationship, rate of elimination, attainment of steady state, and possible accumulation of D crystal form of TJ01-013. After SD rats are administrated 10, 30, and 90 mg/kg of D crystal form of TJ01-013 by gavage in a single dose, 30 mg/kg of D crystal form of TJ01-013 by gavage in a single dose once per day for 7 consecutive days, and 10 mg/kg of D crystal form of TJ01-013 by intravenous injection in a single dose, the data of the concentrations of the prototype drugs in plasma at different time points in each animal are calculated by applying WinNonlin software fitting, and the mean pharmacokinetic parameters of each group of 6 animals (half of males and half of females) are summarized as shown in Table 12 below.

[3] = tested on: SD rat puromycin aminonucleoside (PAN) model; assay: PAN-induced renal injury model in rats; format: in vivo, SD rats
Method: The effect of D crystal form of TJ01-013 on renal function is studied in the SD rat puromycin aminonucleoside (PAN) model. Each group has twelve male rats of 160-180 g. On the first day of the experiment, except for the normal control group, rats in the other groups are given a single intraperitoneal injection of 100 mg/kg PAN (aminonucleoside puromycin) to induce the production of proteinuria. After modeling, the rats are randomly divided into the model control group, the three dose groups of 3 mg/kg, 10 mg/kg, and 30 mg/kg of the D crystal form of TJ01-013, and the normal control group. At the same time as intraperitoneal injection of PAN for modeling, the drug is administered by gavage once a day, with a volume of 10 mL/kg, for four consecutive weeks.

[4] = both sexes, SD, rat, plasma, po, 10 mg/kg, SD rats, single gavage, 10 mg/kg
[5] = both sexes, SD, rat, plasma, po, 30 mg/kg, SD rats, multiple gavage, 30 mg/kg once per day for 7 days
[6] = both sexes, SD, rat, plasma, po, 30 mg/kg, SD rats, single gavage, 30 mg/kg
[7] = both sexes, SD, rat, plasma, po, 90 mg/kg, SD rats, single gavage, 90 mg/kg
[8] = both sexes, Sprague-Dawley (SD), rat, plasma, SD rats, single intravenous injection, 10 mg/kg
[9] = both sexes, rat, plasma, po, SD rats, single gavage, 10 mg/kg
[10] = both sexes, rat, plasma, po, SD rats, single gavage, 30 mg/kg
[11] = both sexes, rat, plasma, po, SD rats, single gavage, 90 mg/kg
[12] = 3, 10, and 30 mg/kg gavage, 7 and 12 d after administration, versus model control

With `O=C(O)C[S+]([O-])c1cc(NS(=O)(=O)c2ccc(Br)cc2)c2ccccc2c1O` (stereo not shown) [Embodiment 4] the “Percentage weight gain by moisture absorption” value ([1]; 90% RH, 25° C.) was 2.13%, the “Hygroscopicity (in words)” value ([1]; according to Table 7, 90% RH) was “slightly hygroscopic” and the solubility at 0.5 h ([2]; FaSSIF buffer, FaSSIF, 0.5 h) was 3300 µg/mL (≈ 6.81 mM). For the same compound, the solubility at 2 h ([2]; FaSSIF buffer, FaSSIF, 2 h) was 3270 µg/mL (≈ 6.75 mM), the solubility at 24 h ([2]; FaSSIF buffer, FaSSIF, 24 h) was 2340 µg/mL (≈ 4.83 mM) and the solubility at 0.5 h ([2]; FeSSIF buffer, FeSSIF, 0.5 h) was 1320 µg/mL (≈ 2.73 mM). The solubility at 2 h ([2]; FeSSIF buffer, FeSSIF, 2 h) was 1380 µg/mL (≈ 2.85 mM), the solubility at 24 h ([2]; FeSSIF buffer, FeSSIF, 24 h) was 1290 µg/mL (≈ 2.66 mM) and the “Solubility (in words)” value ([2]; SGF (FIG. 41)) was “low solubility”. For the same compound, the Solubility ([2]; 0.5 h) was “Not detected”, the Solubility ([2]; 2 h) was “Not detected” and the Solubility ([2]; 24 h) was “Not detected”. For the same compound, the solubility at 0.5 h ([2]; Water, 0.5 h) was 4100 µg/mL (≈ 8.46 mM), the solubility at 2 h ([2]; Water, 2 h) was 4190 µg/mL (≈ 8.65 mM) and the solubility at 24 h ([2]; Water, 24 h) was 3870 µg/mL (≈ 7.99 mM). The “Solubility (in words)” value ([2]; water, FaSSIF, FeSSIF (FIG. 41)) was “high solubility”, the “Induction of autophagy in damaged mitochondria (mitophagy level, mtKeima)” value (HEK293T cells) was “selectively induce autophagy in the damaged mitochondria” and the “Dose relationship of exposure (Cmax, AUC0-24 h)” value (Rat pharmacokinetic test; SD rats, single gavage 10, 30, 90 mg/kg) was “the increase ratio is smaller than that of the dose”. The “Pharmacokinetic characteristics (in words)” value (Rat pharmacokinetic test; SD rats, single gavage and intravenous administration) was “rapid absorption, low apparent volume of distribution and moderate elimination rate”, the “Tissue distribution (in words)” value (Rat pharmacokinetic test; SD rats, single intravenous administration) was “low degree tissue distribution” and the “Difference of plasma pharmacokinetic parameters between male and female” value (Rat pharmacokinetic test; SD rats, single intravenous, single and multiple gavage) was “no significant difference between male and female”. For the same compound, the AUC(0-t) (Rat pharmacokinetic test; both sexes, SD, rat, plasma, iv, 10 mg/kg, SD rats, single intravenous injection, 10 mg/kg) was 112000 ± 11000 ng·h/mL, the AUC(0-inf) (Rat pharmacokinetic test; both sexes, SD, rat, plasma, po, 10 mg/kg, SD rats, single gavage) was 11100 ± 4320 ng·h/mL and the AUC(0-t) (Rat pharmacokinetic test; [4]) was 10700 ± 4440 ng·h/mL. For the same compound, the MRT inf (Rat pharmacokinetic test; [4]) was 4.82 ± 1.4 h, the AUC(0-inf) (Rat pharmacokinetic test; [5]) was 26600 ± 14200 ng·h/mL and the AUC(0-t) (Rat pharmacokinetic test; [5]) was 26200 ± 13700 ng·h/mL. The MRT inf (Rat pharmacokinetic test; [5]) was 3.86 ± 0.947 h, the AUC(0-inf) (Rat pharmacokinetic test; both sexes, SD, rat, plasma, po, 30 mg/kg, SD rats, single gavage) was 22800 ± 6860 ng·h/mL and the AUC(0-t) (Rat pharmacokinetic test; [6]) was 22100 ± 6660 ng·h/mL. The MRT inf (Rat pharmacokinetic test; [6]) was 5.11 ± 1.84 h, the AUC(0-inf) (Rat pharmacokinetic test; both sexes, SD, rat, plasma, po, 90 mg/kg, SD rats, single gavage) was 50100 ± 12200 ng·h/mL and the AUC(0-t) (Rat pharmacokinetic test; [7]) was 49900 ± 12200 ng·h/mL. The MRT inf (Rat pharmacokinetic test; [7]) was 3.94 ± 0.754 h, the AUC(0-inf) (Rat pharmacokinetic test; both sexes, Sprague-Dawley (SD), rat, plasma, iv, 10 mg/kg, SD rats, single intravenous injection) was 113000 ± 11000 ng·h/mL and the MRT inf (Rat pharmacokinetic test; both sexes, Sprague-Dawley (SD), rat, plasma, iv, 10 mg/kg, SD rats, single intravenous injection, 10 mg/kg) was 2.06 ± 0.192 h. For the same compound, the Cmax at 7 days (Rat pharmacokinetic test; both sexes, Sprague-Dawley (SD), rat, plasma, po, SD rats, multiple gavage, 30 mg/kg once per day for 7 days) was 5900 ± 3210 ng/mL, the Tmax at 7 days (Rat pharmacokinetic test; both sexes, Sprague-Dawley (SD), rat, plasma, po, SD rats, multiple gavage, 30 mg/kg once per day for 7 days, median (min, max)) was 1 h and the Tmax (Rat pharmacokinetic test; both sexes, Sprague-Dawley (SD), rat, plasma, po, SD rats, single gavage, 10 mg/kg, median (min, max)) was 30 min. The Tmax (Rat pharmacokinetic test; both sexes, Sprague-Dawley (SD), rat, plasma, po, SD rats, single gavage, 30 mg/kg, median (min, max)) was 30 min, the Tmax (Rat pharmacokinetic test; both sexes, Sprague-Dawley (SD), rat, plasma, po, SD rats, single gavage, 90 mg/kg, median (min, max)) was 60 min and the clearance (Rat pharmacokinetic test; [8]) was 1.49 mL/min/kg. It also gave a half-life (Rat pharmacokinetic test; [8]) of 136 ± 13.3 min, an MRT last (Rat pharmacokinetic test; [8]) of 2 ± 0.168 h and a bioavailability (Rat pharmacokinetic test; both sexes, rat, plasma, oral, SD rats, single gavage 10 mg/kg versus intravenous 10 mg/kg, read-out: F (absolute bioavailability)) of 9.55%. It also gave a half-life at 7 days (Rat pharmacokinetic test; both sexes, rat, plasma, po, SD rats, multiple gavage, 30 mg/kg once per day for 7 days) of 116 ± 53.9 min, a Cmax (Rat pharmacokinetic test; [9]) of 3130 ± 1660 ng/mL and a half-life (Rat pharmacokinetic test; [9]) of 232 ± 88.2 min. For the same compound, the MRT last (Rat pharmacokinetic test; [9]) was 3.84 ± 0.708 h, the Cmax (Rat pharmacokinetic test; [10]) was 4730 ± 1200 ng/mL and the half-life (Rat pharmacokinetic test; [10]) was 212 ± 153 min. The MRT last (Rat pharmacokinetic test; [10]) was 4.42 ± 0.923 h, the Cmax (Rat pharmacokinetic test; [11]) was 9980 ± 1850 ng/mL and the half-life (Rat pharmacokinetic test; [11]) was 125 ± 45.2 min. It also gave an MRT last (Rat pharmacokinetic test; [11]) of 3.89 ± 0.756 h, a concentration at 5 min (Rat pharmacokinetic test; both sexes, rat, plasma, SD rats, single intravenous injection, 10 mg/kg, read-out: C5 min) of 79.9 ± 11.6 µg/mL and a Vd (Rat pharmacokinetic test; both sexes, rat, plasma, SD rats, single intravenous injection, 10 mg/kg, read-out: Vss) of 0.184 L/kg. The Accumulation (Rat pharmacokinetic test; rats, 30 mg/kg gavage once a day for 7 consecutive days) was “no obvious accumulation”, the “Amount of the 24 h urine protein” value [3, 12] was “different degrees of reduction” and the Urine protein concentration [3, 12] was “different degrees of reduction”. For the same compound, the “Amount of the 24 h urine protein” value ([3]; 3, 10, and 30 mg/kg, 12 d after administration) was “certain trend of reduction”, the Blood albumin ([3]; 3, 10 and 30 mg/kg, 7 d and 12 d after administration, versus model control) was “different degrees of increase” and the “Therapeutic effect on PAN-induced renal injury” value ([3]; gavage 3, 10, 30 mg/kg) was “significant therapeutic effect”. For the same compound, the “Degree of renal lesions, pathologic microscopy” value ([3]; low, medium and high dose groups) was “reduce the degree of lesions”.
